Test results: patent US20260078133
Where two headings read alike, the source gives them in different places.

Conditions: ester bond, 18-membered ring, DCM

## CCn1c(-c2cc(N3CCN(C)CC3)cnc2[C@H](C)OC)c2c3cc(ccc31)-c1csc(n1)C[C@H](NC(=O)OC(C)(C)C)C(=O)N1N[C@H](C(=O)OCC(C)(C)C2)C2CC1C2
From CCn1c(-c2cc(N3CCN(C)CC3)cnc2[C@H](C)OC)c(CC(C)(C)CO)c2cc(-c3csc(C[C@H](NC(=O)OC(C)(C)C)C(=O)N4N[C@H](C(=O)O)C5CC4C5)n3)ccc21, PyBOP/DMAP, 5.7 mM, 5.0 h
  ring closure, isolated yield: 48.8%

## CCn1c(-c2cc(N3CCN(C4CC4)CC3)cnc2[C@H](C)OC)c2c3cc(ccc31)-c1nnc(o1)C[C@H](NC(=O)OCc1ccccc1)C(=O)N1N[C@H](C(=O)OCC(C)(C)C2)C2CC1C2
From CCn1c(-c2cc(N3CCN(C4CC4)CC3)cnc2[C@H](C)OC)c(CC(C)(C)CO)c2cc(-c3nnc(C[C@H](NC(=O)OCc4ccccc4)C(=O)N4N[C@H](C(=O)O)C5CC4C5)o3)ccc21, PyBOP/DMAP, 6.6 mM, 16.0 h, 2 steps
  ring closure, isolated yield: 29%

## CCn1c(-c2cc(N3CCN(C(=O)OCc4ccccc4)CC3)cnc2[C@H](C)OC)c2c3cc(ccc31)-c1csc(n1)C[C@H](NC(=O)OC(C)(C)C)C(=O)N(C)NCC(=O)OCC(C)(C)C2
From CCn1c(-c2cc(N3CCN(C(=O)OCc4ccccc4)CC3)cnc2[C@H](C)OC)c(CC(C)(C)CO)c2cc(-c3csc(C[C@H](NC(=O)OC(C)(C)C)C(=O)N(C)NCC(=O)O)n3)ccc21, EDCI/HOBT/DIEA, 4.3 mM, 16.0 h
  ring closure, isolated yield: 38.2%

## benzyl-4-(5-((64S,4S)-4-((tert-butoxycarbonyl) amino)-11-ethyl-10,10-dimethyl-5,7-dioxo-11H-8-oxa-62,63-diaza-1 (5,3)-indola-6(2,4)-bicyclo[3.1.1]heptana-2(1,3)-benzenacycloundecaphane-12-yl)-6-((S)-1-methoxyethyl)pyridin-3-yl)piperazine-1-carboxylate
EDCI/HOBT/DIEA, 6.0 mM
  ring closure, isolated yield: 27%

## CCn1c(-c2cc(N3CCN(C(=O)OCc4ccccc4)CC3)cnc2[C@H](C)OC)c2c3cc(ccc31)N1CCO[C@@H](C[C@H](NC(=O)OC(C)(C)C)C(=O)N3N[C@H](C(=O)OCC(C)(C)C2)C2CC3C2)C1
From CCn1c(-c2cc(N3CCN(C(=O)OCc4ccccc4)CC3)cnc2[C@H](C)OC)c(CC(C)(C)CO)c2cc(N3CCO[C@@H](C[C@H](NC(=O)OC(C)(C)C)C(=O)N4N[C@H](C(=O)O)C5CC4C5)C3)ccc21, PyBOP/DMAP, 9.8 mM, 35.0 °C, 0.5 h
  ring closure, isolated yield: 16%

## C=C[C@@H]1CCN2N[C@@H]1C(=O)OCC(C)(C)Cc1c(-c3cc(N4CCN(C(=O)OCc5ccccc5)CC4)cnc3[C@H](C)OC)n(CC)c3ccc(cc13)-c1csc(n1)C[C@H](NC(=O)OC(C)(C)C)C2=O
From C=C[C@@H]1CCN(C(=O)[C@H](Cc2nc(-c3ccc4c(c3)c(CC(C)(C)CO)c(-c3cc(N5CCN(C(=O)OCc6ccccc6)CC5)cnc3[C@H](C)OC)n4CC)cs2)NC(=O)OC(C)(C)C)N[C@@H]1C(=O)O, EDCI/HOBT/DIEA, 10.0 mM, 16.0 h
  ring closure, isolated yield: 36.7%

## CCn1c(-c2cc(N3CCN(C)CC3)cnc2[C@H](C)OC)c2c3cc(ccc31)-c1csc(n1)C[C@H](NC(=O)OC(C)(C)C)C(=O)N(C)NCC(=O)OCC(C)(C)C2
From CCn1c(-c2cc(N3CCN(C)CC3)cnc2[C@H](C)OC)c(CC(C)(C)CO)c2cc(-c3csc(C[C@H](NC(=O)OC(C)(C)C)C(=O)N(C)NCC(=O)O)n3)ccc21, PyBOP/DMAP, 0.8 mM, 0.0 °C, 1.0 h
  ring closure, isolated yield: 42%

## tert-butyl ((1^2S,12S)-2^1-ethyl-2^2-(2-((S)-1-methoxyethyl)pyridin-3-yl)-4,4,10-trimethyl-7,11-dioxo-2^1H-6-oxa-9,10-diaza-1(4,2)-morpholina-2(5,3)-indolacyclotridecaphane-12-yl)carbamate
EDCI/HOBT/DIEA, 6.5 mM
  ring closure, isolated yield: 44%

## CCn1c(-c2cccnc2[C@H](C)OC)c2c3cc(ccc31)N1CCO[C@@H](C[C@H](NC(=O)OC(C)(C)C)C(=O)N3N[C@H](C(=O)OCC(C)(C)C2)C2CC3C2)C1
From CCn1c(-c2cccnc2[C@H](C)OC)c(CC(C)(C)CO)c2cc(N3CCO[C@@H](C[C@H](NC(=O)OC(C)(C)C)C(=O)N4N[C@H](C(=O)O)C5CC4C5)C3)ccc21, PyBOP/DMAP, 2.6 mM, 16.0 h
  ring closure, isolated yield: 96.2%

## CCn1c(-c2cc(N3CCN(C(=O)OCc4ccccc4)CC3)cnc2[C@H](C)OC)c2c3cc(ccc31)-c1csc(n1)C[C@H](NC(=O)OC(C)(C)C)C(=O)N1N[C@@H](C(=O)OCC(C)(C)C2)C2CC1C2
From CCn1c(-c2cc(N3CCN(C(=O)OCc4ccccc4)CC3)cnc2[C@H](C)OC)c(CC(C)(C)CO)c2cc(-c3csc(C[C@H](NC(=O)OC(C)(C)C)C(=O)N4N[C@@H](C(=O)O)C5CC4C5)n3)ccc21, EDCI/HOBT/DIEA, 5.2 mM, 35.0 °C, 16.0 h
  ring closure, isolated yield: 49%

## CCn1c(-c2cc(N3CCN(C4CC4)CC3)cnc2[C@H](C)OC)c2c3cc(ccc31)-c1csc(n1)C[C@H](NC(=O)OC(C)(C)C)C(=O)N(C)NCC(=O)OCC(C)(C)C2
From CCn1c(-c2cc(N3CCN(C4CC4)CC3)cnc2[C@H](C)OC)c(CC(C)(C)CO)c2cc(-c3csc(C[C@H](NC(=O)OC(C)(C)C)C(=O)N(C)NCC(=O)O)n3)ccc21, PyBOP/DMAP, 5.9 mM, 0.0 °C, 1.0 h
  ring closure, isolated yield: 27%
